{"source": "patent US20230277536A1", "about": "“METHODS AND COMPOSITIONS FOR TREATING EWING FAMILY OF TUMORS” (priority 2021, published 2023)", "key": {"[1]": {"test_system": "A673 cell line", "assay": "In vitro cell proliferation assay (EdU labeling, high-content screening)", "type": "cell-based", "conditions": "A673, EWSR1-FLI1 translocation; 72 hrs exposure, 2-fold dilutions from 200 nM; FIG. 1A", "procedure": "(§1) In vitro cell proliferation assays were performed to test the sensitivity of Ewing tumor cell lines to treatment with YM155. The A673 and SK-N-MC cell lines, each of which have the EWSR1-FLI1 translocation that is characteristic of most cases of Ewing tumors, were seeded in 96-well plates at 2×10^3 cells/well and allowed to attach overnight at 37° C. and 5% CO2. The cells were exposed to YM155 at designated concentrations (2-fold serial dilutions starting from 200 nM) for 72 hrs.\n(§2) Following drug exposure, the cells were labeled with 5-ethynyl-2′- deoxyuridine (EdU) to assess the tumor cell proliferation rates. The labeling lasted 4 hours in the presence of drug exposure. […]\n(§3) The labeled cells were fixed with formaldehyde for 30 min, followed by staining with Hoechst 33342 in a buffer containing 0.5% triton X-100. The incorporated Edu was detected by Click-iT reaction where fixed cells were incubated with a reaction mixture containing 1X Click-iT EdU reaction buffer, CuSO4, and azide-conjugated fluorescent dye in the dark. […]\n(§4) The stained tumor cells were imaged by a high-content screening (HCS) platform (Thermo Scientific Cellomics Array Scan XTi HCS reader). […] From the images fluorescent signals for cell nucleus and the EdU incorporated in newly synthesized DNA were obtained from the HCS reader. […] The IC50 was calculated from the dose response curve of drug inhibition."}, "[2]": {"test_system": "SK-N-MC cell line", "assay": "In vitro cell proliferation assay (EdU labeling, high-content screening)", "type": "cell-based", "conditions": "EWSR1-FLI1 translocation, 72 hrs exposure, 2-fold dilutions from 200 nM, FIG. 1B", "procedure": "as §1, §2, §3, §4"}, "[3]": {"test_system": "A673 cells", "assay": "Apoptosis assays (Annexin V/PI and caspase 3 activity, flow cytometry)", "type": "cell-based", "conditions": "10 nM, 3 days drug exposure, vs DMSO, FIGS. 2A-2D", "procedure": "(§5) Cellular apoptosis was then assayed with the Alexa Fluor™ 488 Annexin V/Dead cell apoptosis Kit (ThermoFisher®, USA) and GreenNuc™ live cell caspase 3 activity assay kit (Beyotime Biotechnology, China). Briefly, cells cultured in 6-well tissue culture plates were treated with 10 nM YM155 or DMSO (control). Following 3 days drug exposure, the cells were collected and assayed for apoptosis according to the manufacturers' instructions. For annexin V assay, the cell suspensions were incubated with Alexa Flour™ 488 labeled annexin V and Propidium Iodide (PI). For the caspase 3 activity assay, a caspase 3 substrate was added to generate fluorescent product. The cells were then analyzed on a BD LSR Fortessa cell analyzer. Flow cytometry data was analyzed with Flowjo software."}, "[4]": {"test_system": "SK-N-MC cells", "assay": "Apoptosis assays (Annexin V/PI and caspase 3 activity, flow cytometry)", "type": "cell-based", "conditions": "10 nM, 3 days drug exposure, vs DMSO, FIGS. 3A-3D", "procedure": "as §5"}, "[5]": {"test_system": "SK-N-MC xenograft", "assay": "Murine SK-N-MC xenograft Ewing tumor model", "type": "in vivo, mice"}, "[6]": {"test_system": "EWS-FLI1", "assay": "Western-blot analysis of EWS-FLI1 expression level", "type": "cell-based", "conditions": "A673 and SK-N-MC cells, 10 nM, 12-48 hrs; FIG. 5", "procedure": "(§6) Western-blot analysis was performed to examine the suppression by YM155 on the expression level of EWS-FLI1, the protein product of EWSR1-FLI1 translocation, and its effector proteins MYC and cyclin D1. In brief, A673 and SK-N-MC cells seeded on 6-well plates were treated with 10 nM YM155 for 12-48 hrs. The cells were then harvested and lysed in a lysis buffer containing protease inhibitor cocktail (Beyotime, China) at 4C. The concentrations of total protein in the cell lysates were determined by BCA Protein Assay Kit (ThermoFisher, USA). Forty micrograms of total protein was used in each lane for SDS-PAGE and western-blot assay. Antibodies against EWS-FLI1, MYC, and cyclin D1 were used to detect the expression levels of the proteins. GAPDH was used as a loading control."}, "[7]": {"test_system": "MYC", "assay": "Western-blot analysis of MYC expression level", "type": "cell-based", "conditions": "A673 and SK-N-MC cells, 10 nM, 12-48 hrs; FIG. 5", "procedure": "as §6"}, "[8]": {"test_system": "cyclin D1", "assay": "Western-blot analysis of cyclin D1 expression level", "type": "cell-based", "conditions": "A673 and SK-N-MC cells, 10 nM, 12-48 hrs; FIG. 5", "procedure": "as §6"}, "[9]": {"test_system": "A673 xenograft", "assay": "Murine A673 xenograft Ewing tumor model", "protocol": "The dosing schedules in FIG. 4B are as follows: YM155 monobromide, 3.5 mg/kg, 21-day-infusion with an osmotic pump; vincristine, 0.5 mg/kg, QW*3, IV; doxorubicin, 3.3 mg/kg, QW*3, IV; cyclophosphamide, 40 mg/kg, QW*3, IV. The dosing schedules in FIG. 4B are as follows: YM155 monobromide, 2 mg/kg, 21-day-infusion with an osmotic pump; ifosfamide, 30 mg/kg, QW*3, IV; etoposide, 7.5 mg/kg, QW*3, IP. […] The dosing schedules were as follows: YM155 monobromide, 3.5 mg/kg, 21-day-infusion with an osmotic pump; vincristine, 0.5 mg/kg, QW*3, IV; doxorubicin, 3.3 mg/kg, QW*3, IV; cyclophosphamide, 40 mg/kg, QW*3, IV.\nTo test for in vivo activity, a Ewing tumor model was generated by implanting either A673 or SK-N-MC cells into mice. When the tumor size reached 150 mm3, the mice were grouped randomly and injected with YM155 by 21-day infusion with an osmotic pump. The tumor size was measured every three days."}}, "data": [{"substance": "1-(2-Methoxyethyl)-2-methyl-4,9-dioxo-3-(pyrazin-2-ylmethyl)-4,9-dihydro-1H-naphtho[2,3-d] imidazolium bromide [YM155]", "values": [{"measurement": "sensitivity to YM155 in in vitro cell proliferation assay", "setting": "[1]", "value": "highly sensitive"}, {"measurement": "sensitivity to YM155 in in vitro cell proliferation assay", "setting": "[2]", "value": "highly sensitive"}, {"measurement": "apoptosis induction", "setting": "[3]", "value": "induced strong apoptosis"}, {"measurement": "apoptosis induction", "setting": "[4]", "value": "induced strong apoptosis"}, {"measurement": "effect on tumor growth", "setting": "[5]; SK-N-MC xenograft in mice, 3.5 mg/kg, 21-day infusion with osmotic pump, FIG. 4C", "value": "strong inhibitory effect on tumor growth"}, {"measurement": "efficacy compared with vincristine standalone therapy", "setting": "[5]; SK-N-MC xenograft, YM155 3.5 mg/kg 21-day infusion vs vincristine 0.5 mg/kg QW*3 IV", "value": "superior"}, {"measurement": "efficacy compared with vincristine/doxorubicin/cyclophosphamide triple therapy", "setting": "[5]; SK-N-MC xenograft, YM155 3.5 mg/kg 21-day infusion vs vincristine 0.5, doxorubicin 3.3, cyclophosphamide 40 mg/kg QW*3 IV", "value": "superior"}, {"measurement": "protein expression of EWS-FLI1", "setting": "[6]", "value": "inhibited protein expression"}, {"measurement": "protein expression of MYC", "setting": "[7]", "value": "inhibited protein expression"}, {"measurement": "protein expression of cyclin D1", "setting": "[8]", "value": "inhibited protein expression"}, {"measurement": "effect on tumor growth", "setting": "[9]; A673 xenograft in mice, 21-day infusion with osmotic pump, 3.5 or 2 mg/kg, FIGS. 4A-4B", "value": "strong inhibitory effect on tumor growth"}, {"measurement": "efficacy compared with ifosfamide/etoposide combination therapy", "setting": "[9]; A673 xenograft, YM155 2 mg/kg 21-day infusion vs ifosfamide 30 mg/kg QW*3 IV, etoposide 7.5 mg/kg QW*3 IP", "value": "superior"}, {"measurement": "efficacy compared with vincristine standalone therapy", "setting": "[9]; A673 xenograft, YM155 3.5 mg/kg 21-day infusion vs vincristine 0.5 mg/kg QW*3 IV", "value": "superior"}, {"measurement": "efficacy compared with vincristine/doxorubicin/cyclophosphamide triple therapy", "setting": "[9]; A673 xenograft, YM155 3.5 mg/kg 21-day infusion vs vincristine 0.5, doxorubicin 3.3, cyclophosphamide 40 mg/kg QW*3 IV", "value": "superior"}]}]}
